experiment: Human HepG2 cell viability assay in 384 well format; assay type: toxicity, cell-based; set-up: dose 125 nL, time 70.5 hour; cytotoxicity at 70.5 h: concentration not given beside the values; conditions: HepG2 cells, read-out: Inhibition

| SMILES | cytotoxicity at 70.5 h |
| --- | --- |
| CCC1(CC)CC(=O)N(CC(O)c2cccc(F)c2)C1=O (centres undefined) | -3.42% |
| O=S(=O)(c1ccccc1N1CC(n2cccn2)C1)C(F)(F)F | 1.67% |
| CC(C)c1nnc2n1CCN(Cc1cc(Cl)c3c(c1)OCCO3)C2 | -4.04% |
| CCCOc1ccc2c(c1)OCC(CNC1CCc3ncnn3C1)=C2 (centres undefined) | -6.97% |
| O=C(Nc1cccc(N2CCOCC2)c1)N[C@H](CO)c1ccccc1 | -1.11% |
| CC(CN1CCOCC1)NC(=O)N1CCCC1 (centres undefined) | -3.6% |
| Cc1ccc(CNC(=O)c2ccc(=O)n(C)n2)c(OC2CCCC2)c1 | -5.94% |
| Cn1nnnc1SCC1(O)CCCCC1 | -5.84% |
| CN(Cc1cc(Br)cs1)Cc1nnsc1Cl | -8.26% |
| CN1CCCN(c2ccc(F)cc2CNC(=O)c2cccnc2)CC1 | 29.2% |
| O=S(=O)(NCCCn1cncn1)c1ccc2c(c1)CCCC2 | -5.74% |
| Cc1cc(C)n(CCN2CCC(N(C)Cc3noc(C4CC4)n3)C2)n1 (centres undefined) | -4.52% |
| CCNC(=O)c1ccc(NC(=O)N(C)Cc2cc(C)on2)c(C)c1 | -5.12% |
| O=S(=O)(NCCCn1cncn1)c1ccc2c(c1)OCCCO2 | -6.28% |
| C1=C(CNC2CCc3ncnn3C2)COc2ccccc21 (centres undefined) | -9.66% |
| CC(C)c1nnc2n1CCN(Cc1cc(Cl)c3c(c1)OCO3)C2 | -1.27% |
| CCOCCN1CCN(CC(=O)NC2(C#N)CCCC2)CC1C (centres undefined) | 10.7% |
| Cc1nc(C(C)(C)NCc2ncc(C3CC3)o2)sc1C | 2.05% |
| CCN(CC)CCn1cc(NC(=O)CNc2ccccc2OC)cn1 | 7.01% |
| CNS(=O)(=O)c1cc(C(=O)NC2COc3ccccc3C2)ccc1OC (centres undefined) | 6.83% |
| CC(C)(NCc1ccc(C#N)cc1)c1ccc2c(c1)OCO2 | 12.3% |
| CC(C)c1ccc(OCCC(=O)NCCC(=O)N(C)C)cc1 | -8.34% |
| CC(C)c1ccc(OCCC(=O)N(C)CC(N)=O)cc1 | -12.9% |
| Cc1nc(-c2cc(C(=O)O)co2)cs1 | -9.39% |
| Cn1cnc2c1CCN(CC(=O)NC1CCCCNC1=O)C2 (centres undefined) | 15.2% |
| Cc1occc1C(=O)N1CCCN(Cc2ncc(Cl)n2C)CC1 | -7.84% |

| SMILES | cytotoxicity at 70.5 h |
| --- | --- |
| Cc1cnn(CC(C)NCc2cc(=O)n3cc(C)ccc3n2)c1 (centres undefined) | -6.57% |
| CC(NC(=O)NC1CCN(CC2CCCC2)CC1)c1nccs1 (centres undefined) | -6.39% |
| COCCN(C(=O)c1ccsc1)c1ccc(C#N)cc1 | -3.69% |
| Cc1nc(-c2cc(C(=O)NC(C)(C(=O)O)C(C)C)co2)cs1 (centres undefined) | -7.3% |
| CC(C)c1ccc(OCCC(=O)N(C)C)cc1 | 12.7% |
| O=C(NCCSC1CCCC1)c1cc(Cl)ccn1 | 22.7% |
| O=C(NCCSC1CCCC1)c1cnccn1 | 29.4% |
| CC1COCCN1C(=O)c1ccc(=O)n(CCOc2ccccc2)n1 (centres undefined) | -5.11% |
| COc1ccc(C2CCCN2c2ccc(C#N)cn2)c(OC)c1 (centres undefined) | 4.11% |
| CCC1CCCCN1C(=O)CCn1cnc2sccc2c1=O (centres undefined) | -11.1% |
| CNC(=O)C1CCCCN1C(=O)CCn1cnc2sccc2c1=O (centres undefined) | -1.4% |
| COc1ccc(C2CCCN2c2cnccn2)c(OC)c1 (centres undefined) | -2.67% |
| Cc1nccn1-c1cc(CNS(=O)(=O)N2CCCC(C)C2)ccn1 (centres undefined) | 18% |
| O=C(NCC(F)(F)F)c1nnn(-c2ccccc2)c1C(F)(F)F | -4.56% |
| COC(=O)c1ccc(N2CCN(C(=O)C(C)C)C(C)C2)cc1 (centres undefined) | 26.6% |
| COc1ccc(N2CCC(NCc3csc(C(C)C)n3)CC2)cc1 | 4.75% |
| Cc1cc(NC(=O)NC(C)(C)c2nc(C)c(C)s2)no1 | -8.02% |
| CCCOCCOC(=O)c1ccc2c(c1)[nH]c(=O)n2C | 11.7% |
| NC(=O)CN1CCN(CC2CC2)c2ccccc21 | 13.1% |
| Cc1cc(NC(=O)CCNC(C)(C)c2nc(C)c(C)s2)no1 | -5.95% |
| O=C(NCc1nncn1C1CC1)C1(c2cccc(F)c2)CCOCC1 | -9.71% |
| O[C@@H]1Cc2ccccc2[C@@H]1Nc1ncccc1F | -9.59% |
| Cc1csc(CN(CC2CCCO2)C(=O)c2cccnc2C)n1 (centres undefined) | -6.56% |
| CCCn1nnnc1CSc1nccn1CC | -0.835% |
| Cc1cc(C(=O)NCC2CCCO2)c(C)n1-c1cccnc1 (centres undefined) | -10.8% |
| Cc1csc(CN(C)CCCOc2cccc(C#N)c2)n1 | 13.7% |

| SMILES | cytotoxicity at 70.5 h |
| --- | --- |
| Cc1cc(CN2CCN(CC(=O)NC3(C#N)CCCCC3)CC2)on1 | 2.07% |
| CC(c1ncc(C(C)(C)C)o1)N1CCN(Cc2ccco2)CC1 (centres undefined) | -5.45% |
| Cc1nc(CN[C@H]2CCCN(C(=O)OC(C)(C)C)C2)cs1 | -3.34% |
| CC1CCc2nc(NC(=O)CN(C)C(=O)c3ccco3)sc2C1 (centres undefined) | 28.3% |
| Cc1cc(NCCNc2ccc(C#N)cn2)nc(C)n1 | -6.84% |
| COCCOc1ccccc1NC(C)C(=O)NC(=O)NC(C)(C)C (centres undefined) | -15.9% |
| CCN(CC)c1nc2sc(C(=O)NCC(=O)OC)cc2s1 | 19.9% |
| O=S(=O)(Cc1ccccc1)NCC1CCCN(Cc2cccs2)C1 (centres undefined) | -0.373% |
| Cc1csc(CCNc2ccc(C#N)cc2F)n1 | -10.7% |
| CS(=O)(=O)NCC1CCCCN1Cc1ccccc1C#N (centres undefined) | -10.5% |
| c1csc(-c2cc(CN3CCN(c4nccs4)CC3)no2)c1 | -10.2% |
| COC(=O)N1CCCC(NC(=O)NCc2nc(C)cs2)C1 (centres undefined) | -8.72% |
| Cc1cc(N2CCN(C(=O)c3cn(C)c4ccccc34)CC2)nc(C)n1 | 20.3% |
| COC(=O)N1CCCC(NC(=O)NCc2ccc(C)nc2)C1 (centres undefined) | -4.96% |
| Cc1noc(C(C)N2CCN(c3ncnc4sccc34)CC2)n1 (centres undefined) | -7.54% |
| CC(NC(=O)c1cc(N2CCNC2=O)ccc1F)c1ccc(F)cc1 (centres undefined) | -4.65% |
| Cc1csc(C2CCCCN2C(=O)c2cnn3ccc(C)nc23)n1 (centres undefined) | -18.6% |
| Cc1ccn2ncc(C(=O)N3CCCC(c4noc(C)n4)C3)c2n1 (centres undefined) | 14.9% |
| CN(C)c1ccccc1CN1CCCCC1CNS(C)(=O)=O (centres undefined) | -4.51% |
| COC(=O)N1CCCC(NC(=O)NCc2cccc(C)n2)C1 (centres undefined) | -6.49% |
| Cc1ccn2ncc(C(=O)N3CCCC(c4cc(C)[nH]n4)C3)c2n1 (centres undefined) | -7.17% |
| Cc1nn(C)c(C)c1C1CCCN1CCOc1ccccc1C#N (centres undefined) | 1.39% |
| O=C1CCCN1CCc1nc(-c2ccsc2)no1 | -14.2% |
| Cn1cc(C2CCCN2C(=O)COC2CCCCC2)cn1 (centres undefined) | -11.1% |
| COc1ccc2c(c1)CCCN2C(=O)CNCC1CN(C)CCO1 (centres undefined) | 12.1% |
| Cc1nn(C(C)(C)C)c(=O)n1CC(=O)NC(C)(C)C | 10.6% |

| SMILES | cytotoxicity at 70.5 h |
| --- | --- |
| COCC(C)NC(=O)c1cncc(Br)c1 (centres undefined) | -0.743% |
| Clc1ccc(OCCNC2(c3ccc(Br)cc3)CCOCC2)cc1 | 9.53% |
| O=C(c1csc(-c2ccco2)n1)N(CC1CCOC1)C1CC1 (centres undefined) | 4.66% |
| O=C(NCc1ccc(-n2cncn2)nc1)N(CC1CCOC1)C1CC1 (centres undefined) | -5.41% |
| Cc1ccc(C(=O)N(Cc2ccccc2F)C2CC2)c(=O)[nH]1 | 7.09% |
| COc1ccc(OC)c(CN(C(=O)c2ccc(C)[nH]c2=O)C2CC2)c1 | 3.46% |
| Cc1ccc(C(=O)N(Cc2ccc(F)cc2)C2CC2)c(=O)[nH]1 | -3.98% |
| CC(C)(C)OC(=O)NCC(=O)NCc1ccc(Cl)s1 | -0.913% |
| CC(NC(=O)COc1ccccc1I)C1CC1 (centres undefined) | -1.97% |
| COc1ccccc1C1(C(=O)N2CCN(CC(C)O)CC2)CC1 (centres undefined) | -0.267% |
| CC(C)OC(=O)N1CCC(Nc2ncc(Br)cn2)CC1 | -2.18% |
| Cc1nc(CSCCC(=O)NCC(=O)NC(C)C)cs1 | 1.26% |
| CN(C)CC1CN(CC(=O)N2CCc3ccccc32)CCO1 (centres undefined) | 11.8% |
| CN(C)C1CCCN(C(=O)NCCNC(=O)C2CCCCC2)C1 (centres undefined) | 3.73% |
| COCc1ccccc1C(=O)NCC(O)c1ccccc1F (centres undefined) | -2.57% |
| Cc1cccnc1CNc1ccc(C(=O)N2CCc3ccccc32)cn1 | 0.0725% |
| CCCC(=O)N1CCC(Nc2ncc(Br)cn2)CC1 | 0.868% |
| CN(C)C1CCCN(C(=O)NCCC(=O)N2CCCCCC2)C1 (centres undefined) | 0.671% |
| CCn1ccnc1CN1CCN(c2ncnc3ccsc23)CC1C (centres undefined) | 0.44% |
| CCC(O)CN1CCN(C(=O)C2(c3ccc(C)c(OC)c3)CC2)CC1 (centres undefined) | 4.09% |
| COc1cc(C2(C(=O)N3CCN(CC(C)(C)O)CC3)CC2)ccc1C | -0.73% |
| CC(C)OCCNC1(c2ccc(F)cc2)CCOCC1 | -3.2% |
| Cc1cc(CNC(=O)N2CCN(C(C)c3cccnc3)CC2)c(C)o1 (centres undefined) | -0.922% |
| CC(C)(C)c1n[nH]cc1CNCC1CCN(CC(F)(F)F)C1 (centres undefined) | -6.93% |
| CC(C)(C)c1n[nH]cc1CNCC1CCN(C2CC2)C1 (centres undefined) | -6.24% |
| CC(NCc1ccc(OCC(N)=O)cc1)c1ccc(Cl)cc1 (centres undefined) | 15.5% |
